# In patent US20250017853A1, “NANOSUSPENSION CONTAINING PROGERININ, AND PREPARATION METHOD THEREFOR” (PRG S&Tech Inc., priority 2021, published 2025):
# How the values were obtained:
# [1] = Stability of spray-dried solid dispersions under high temperature and high humidity for 2 weeks; format: physicochemical; conditions: for Appearance / HPLC results Purity / XRPD: open
# [2] = Excipient compatibility, binary mixtures 1:10, 40° C./75% RH over 2 weeks; format: physicochemical
# Procedure: To assess compatibility with excipients, progerinin was mixed with HPMC E3, TPGS, and potassium sorbate in a ratio of 1:10, and the effectiveness of the drug (API) components was measured under 40° C./75% RH condition over 2 weeks and shown in Table 9 and Table 10.
# [3] = BCS classification, permeability and solubility of progerinin; format: physicochemical
# Text: In particular, the above-mentioned progerinin is poorly soluble to the extent that its solubility in water is close to zero, and the solubility is very low even in existing ingestible solvents, such that it is necessary to develop a formulation that enables long-term intake and body absorption through the introduction of new technology.
# [4] = system: progeria-induced animal model; conditions: background art; cited from earlier work
# [5] = BCS criteria; cited from earlier work
smiles,measurement,setting,value
"CC1(C)Oc2cc3oc(=O)ccc3cc2C[C@@H]1OC/C=C/c1ccccc1 [progerinin, (7S)-(+)-8,8-dimethyl-7-(3-phenylallyloxy)-7,8-dihydro-6H-pyrano [3,2-g]chromen-2-one]",Appearance,[1]; 25° C./60% RH,White
same,HPLC results Purity,"[1]; 25° C./60% RH, after 1 week",99.85%
same,XRPD,"[1]; 25° C./60% RH, after 1 week",Unchanged
same,HPLC results Purity,"[1]; 25° C./60% RH, after 2 weeks",99.85%
same,XRPD,"[1]; 25° C./60% RH, after 2 weeks",Unchanged
same,Appearance,[1]; 40° C./75% RH,White
same,HPLC results Purity,"[1]; 40° C./75% RH, after 1 week",99.85%
same,XRPD,"[1]; 40° C./75% RH, after 1 week",Unchanged
same,HPLC results Purity,"[1]; 40° C./75% RH, after 2 weeks",99.85%
same,XRPD,"[1]; 40° C./75% RH, after 2 weeks",Unchanged
same,Initial purity,[1]; Initial,99.85%
same,API(% Area),"[2]; 40° C./75% RH, 1 week",99.94 % Area
same,RRT = 1.02,"[2]; 40° C./75% RH, 1 week",0.06
same,API(% Area),"[2]; 40° C./75% RH, 2 weeks",99.95 % Area
same,RRT = 1.02,"[2]; 40° C./75% RH, 2 weeks",0.05
same,API(% Area),[2]; Initial,99.94 % Area
same,RRT = 1.02,[2]; Initial,0.06
same,"compatibility with excipients HPMC E3, TPGS and potassium sorbate",[2]; text summary of Tables 9 and 10,no effect on the drug
same,solubility in water,[3],close to zero
same,survival period of progeria-induced animal model,[4],prolonging a survival period
same,solubility in aqueous media,[5],low solubility in aqueous media
